How the values were obtained:
[1] = TLC plates containing ciliary extracts; cited from earlier work
neutrophils = test: Transendothelial migration of neutrophils; type: cell-based, human; conditions: native FHA 1 μM
Experimental: Transendothelial migration of neutrophils was studied based on a method described by Muller et al. (1992), J. Exp. Med. 176: 819-828. Briefly, human neutrophils suspended in ice-cold Hanks balanced salt solution (HBSS) containing Ca^++ and Mg^++ (Sigma) were fluoresceinated by adding 3.3 μl/ml 5-(and 6-)carboxyfluorescein diacetate, succinimidyl ester (CFSE, Molecular Probes Inc., Oreg.). After incubation for 30 mins. on ice, neutrophils were washed twice in cold HBSS with Ca^++ and Mg^++ and resuspended in cold Medium 199 (M199, Sigma) to a final concentration of 10^6 /ml. Human umbilical vein endothelial cells were subcultured at confluence into 96-well tissue culture plates (Becton Dickinson Labware, Lincoln Park, N.J.) that were coated with hydrated collagen gel (Vitrogen; Collagen Corporation, Palo Alto, Calif.) and fibronectin. Endothelial cells were stimulated with 10 ng/ml TNF-alpha for 4 hours and washed three times with warm M199. Neutrophils (10^6 /ml) were preincubated with 0.01 mM of peptides or with 1 μM of native FHA in M199 for 5 mins. on ice before they were added in 100 μl aliquots to the endothelial cells. For positive control, neutrophils were pre-incubated with 25 μg/ml anti-CD18 mAb IB4. For negative control, neutrophils were treated with 25 μg/ml mAb W6/32 against HLA class I antigen (Dako, Carpinteria, Calif.). The cells were incubated for 1 hour at 37° C., 5% CO2. To terminate transmigration, the supernatant fluid was aspirated and the wells were filled with warm 1 mM EGTA (Sigma) in HBSS without Ca and Mg. The plates were covered with plate sealers (Dynatech, Alexandria, Va.) and centrifuged in an inverted position at 250 g for 3 mins. at room temperature. To remove residual non-transmigrated neutrophils from the endothelial cells, monolayers were washed twice with 200 μl of warm Hanks solution without Ca and Mg. Fluorescence was quantitated using a fluorescence counter (Millipore Cytofluor™ 2300). The percentage of transmigrated neutrophils was determined by comparing the amount of fluorescence of test wells with that measured in collagen- and fibronectin-coated wells without endothelial cells. […] Percent inhibition of transendothelial migration of neutrophils was calculated by comparing the number of transmigrated cells in wells containing neutrophils treated with peptide to neutrophils treated with M199 alone and arbitrarily set at 100% transendothelial migration (TEM).
(§1) The procedures for determining the neutrophil adherence to cultured endothelial cells and the transendothelial migration of neutrophils were identical with those of Example 9. Control values were the same as those shown in Example 9.

C3bi = test: Inhibition of binding of 12.1F9 to E-C3bi by peptides; set-up: species or system human
Source text: The antibody 12.1F9 maps to the region 1279-2011 of FHA. When the derived amino acid sequence of this region was compared to that of C3, a region of 11 amino acids with similar sequence was found between FHA residues 1408-1418 and C3 residues 1187-1197 (Table 14). […] However, the FHA-20-mer and the homologous C3-derived peptide blocked binding by up to 60%.

[2] = tested on: human umbilical vein endothelial cells; test: Adherence of neutrophils to cultured (TNF-stimulated) endothelial cells; type: cell-based
Experimental: Human umbilical vein endothelial cells (HUVEC, first passage, Clonetics, San Diego, Calif.) were subcultured at confluence into Terasaki tissue culture wells. After 24 hours, confluent monolayers were used for adherence assays. Monolayers were stimulated with 10 ng/ml TNF alpha (Boehringer Mannheim, Indianapolis, Ind.) at 37° C. for four hours. 30 μl of human neutrophils (10^6 /ml) were labeled with fluorescein by the method of Lo et al. (1991), J. Exp. Med. 173 1493-1500, and preincubated for 15 minutes at 37° C. with 20 μl of peptides (0.5 mM in HAP) or HAP (phosphate buffered saline containing 0.5 mg/ml human serum albumin, 3 mM glucose, and 0.3 U/ml aprotinin) as a control buffer. For some experiments, endothelial cells were pretreated from 10 minutes with Factor X or antibodies against Factor X receptor (EPR-1; Altieri et al. (1990), J. Immunol. 145, 246-253) 12H1 and 9D4 (obtained from Dr. D. Altieri, Scripps Research Institute, Lajolla, Calif.) and then washed. Neutrophils were allowed to adhere to the monolayer for 15 mins. at 37° C. and unbound cells were removed by submersion of the plate in PBS buffer. The number of adherent neutrophils was counted in a 40× microscope field and expressed as a percentage of adherence in control wells with neutrophils treated with HAP buffer alone. The mAb IB4 against CD18 (50 μg/ml; Merck Inc., Rahway, N.J.) served as a positive control.
as §1

Substance: filamentous hemagglutinin [native FHA]
- binding to lactosylceramide [1]: binds to lactosylceramide
- % Inhibition of TEM (neutrophils): 82±1%
- % Inhibition of TEM (neutrophils; listed as FHA): 82 ± 1%
- % Inhibition of TEM (neutrophils; listed as Intact FHA): 82±1%
- block of binding of 12.1F9 to C3bi (in words) (C3bi): blocked binding almost completely
- Adherence index (C3bi; peptides 50 μg/ml, normalized to a control value of 100): 16 ± 16
- reduction of neutrophil binding to HUVEC ([2]; 25 μg/ml=0.3 μM): 51±8%
- inhibition of adherence of neutrophils to cultured endothelial cells ([2]; 50 ug/ml, 0.2 uM): 51±7%
- maximal inhibition of neutrophil attachment ([2]; concentration dependence): ~ 50%

Reference: patent US6015560A, “Antibody recognizing endothelial cell ligand for leukocyte CR3” (priority 1995, dated 2000)
